What all share (type): binding, mouse
Assay [1] concerns monoclonal antibody Sol-8. The assay can be described thus: competitive inhibition ELISA (c-ELISA), monoclonal antibody Sol-8. As to conditions: Sol-8 (IgG2a); ± one standard deviation. How it is done:
(§1) Five, 6 month old BALB/c mice were injected with 50 μl of the solanidine-KLH conjugate mixed 1:1 with Ribi adjuvant (Ribi Immunochem Research Inc., Hamilton, Mont.). The mice received half the dose intraperitoneally and half intramuscularly every other week for a total of three injections. One month later, and 4 days prior to fusion, a selected mouse was given an intraperitoneal injection of 50 μl of solanidine-KLHconjugate in sterile saline. The spleen was removed and the splenocytes fused with SP2/O myeloma cells as described by Stanker et al. (1986, J. Immunol., 136:4174-4180), the contents of which are incorporated by reference herein. The fused cells were plated over 30 96-well microculture plates previously coated with mouse peritoneal exudate cells (macrophage) and grown under conditions described by Elissalde et al. (1993, J. Agric. Food Chem., 41:2167-2171), the contents of which are also incorporated by reference herein.
(§2) db-ELISA. A modification of a direct-binding ELISA described by Stanker et al. (1993, J. Agric. Food Chem., 41:1332-1336), the contents of which are incorporated by reference herein, was used to screen the culture fluids from the growing hybridomas for antibodies to solanidine. Microtiter plates (Nunc Maxisorb, Roskilde, Denmark; or Costar high binding plates, Costar Corp., Wilmington, Mass.) were coated with SOL-BSA by addition of 100 μl/well of a 1 μg/ml solution of SOL-BSA in distilled water. The SOL-BSA was incubated in uncovered plates at 37° C. for 18 hr to evaporate the liquid and allow the SOL-BSA to coat the bottom of the microtiter wells. The "coated" plates were then stored in sealed plastic bags at 4° C. and used within 2 weeks. Nonreacted sites on the plates were blocked by adding 400 μl of a 3% solution of nonfat dry milk (NFDM) in assay buffer (0.1M Tris, 0.15M NaCl, 10 mg/ml nonfat dry milk, 0.001% Tween 20, 0.02% sodium azide) and incubating the plates at room temperature for 1 hr. The blocking solution was then discarded and 100 μl of the hybridoma supernatant(s) or anti-solanidine Mab (from ascites fluid) was added, and the plates incubated for 1 hr at 37° C. After incubation, the plates were washed with a solution of 0.05% TWEEN-20 in water, and peroxidase conjugated goat anti-mouse antiserum (Sigma Inc., St. Louis, Mo.), diluted 1:500 in assay buffer, was then added to each well. Following a second 1 hr incubation at 37° C., the plates were washed as described above. Finally, the substrate, 2,2'-azino-bis(ethylbenzthiazole-6-sulfonic acid) (ABTS), was added. Absorbance was measured at 405 nm and the resulting data analyzed by computer using an Excel (Microsoft, Redmond, Wash.) spreadsheet program.
(§3) c-ELISA. The competitive inhibition ELISA for solanidine and other glycoalkaloids was carried out as previously described for other compounds by Stanker et al. (1993, ibid). Briefly, to each well of an antigen (glycoalkaloid or aglycone) coated, non-fat-milk-blocked, microtiter plate prepared as described in the db-ELISA was added 100 μl of assay buffer. Competitors (free solanidine and other glycoalkaloids and aglycones, and four structurally related steroids cholesterol, digitonin, βsitosterol, and stigmasterol, shown in Table 1) dissolved in 100 μl of assay buffer were added to the microassay plate and serially diluted (a 2-fold series). Next, 100 μl of assay buffer containing a predetermined amount of anti-solanidine monoclonal antibody prepared above was added to each well. The amount of anti-alkaloid antibody added was the concentration (dilution from tissue culture supernatant) resulting in approximately 50% of maximum binding or signal in a direct-binding ELISA where no competitor was present. The plates were sealed with plastic wrap, incubated for 1 hr at 37° C., and then processed as described in the db-ELISA to detect bound antibody. […]
A general note: In an ELISA, binding on a coated surface is turned into a signal by an enzyme label.

The test system of assay [2] is monoclonal antibody Sol-54. Briefly: competitive inhibition ELISA (c-ELISA), monoclonal antibody Sol-54. As to conditions: Sol-54 (IgG2a); ± one standard deviation. How it is done:
as §1, §2, §3

In assay [3] the test system is monoclonal antibody Sol-55. The assay can be described thus: competitive inhibition ELISA (c-ELISA), monoclonal antibody Sol-55. As to conditions: Sol-55 (IgG2a); ± one standard deviation. How it is done:
as §1, §2, §3

The subject of assay [4] is monoclonal antibody Sol-59. The assay can be described thus: competitive inhibition ELISA (c-ELISA), monoclonal antibody Sol-59. As to conditions: Sol-59 (IgG2a); ± one standard deviation. As to the method: as §1, §2, §3
Assay [5] concerns monoclonal antibody Sol-67. Briefly: competitive inhibition ELISA (c-ELISA), monoclonal antibody Sol-67. As to conditions: Sol-67 (IgG1); ± one standard deviation. How it is done: as §1, §2, §3
Assay [6] has as its system monoclonal antibody Sol-68. Briefly: competitive inhibition ELISA (c-ELISA), monoclonal antibody Sol-68. As to conditions: Sol-68 (IgG1); ± one standard deviation. How it is done:
as §1, §2, §3

Assay [7] concerns monoclonal antibody Sol-71. Briefly: competitive inhibition ELISA (c-ELISA), monoclonal antibody Sol-71. As to conditions: Sol-71 (IgG2a); ± one standard deviation. How it is done:
as §1, §2, §3

Assay [8] concerns monoclonal antibody Sol-91. Briefly: competitive inhibition ELISA (c-ELISA), monoclonal antibody Sol-91. As to conditions: Sol-91 (IgG2a); ± one standard deviation. How it is done:
as §1, §2, §3

For assay [9], the system named is monoclonal antibody Sol-106. Briefly: competitive inhibition ELISA (c-ELISA), monoclonal antibody Sol-106. As to conditions: Sol-106 (IgG2a); ± one standard deviation. As to the method: as §1, §2, §3
Assay [10] deals with monoclonal antibody Sol-129. Briefly: competitive inhibition ELISA (c-ELISA), monoclonal antibody Sol-129. As to conditions: Sol-129 (IgG1); ± one standard deviation. As to the method: as §1, §2, §3
Assay [11] relates to eleven monoclonal antibodies. The assay can be described thus: competitive inhibition ELISA (c-ELISA), all eleven monoclonal antibodies. As to conditions: in words. As to the method:
as §1, §2
c-ELISA. […]

With `CC[C@H](/C=C/[C@@H](C)[C@H]1CC[C@H]2[C@@H]3CC=C4C[C@@H](O)CC[C@]4(C)[C@H]3CC[C@]12C)C(C)C` [stigmasterol], the IC50 entry in assay [1], in assay [2], in [3], in [4], in [5] and in assay [6] was “nc (no competition at 10,000 ppb)” throughout. Besides, the IC50 result in assay [7], in assay [8], in assay [9] and in assay [10] was “nc (no competition at 10,000 ppb)” throughout. For the same compound, the “cross-reaction of the antibodies” value in assay [11] was “None of the eleven antibodies cross-reacted”.

`C[C@@H]1CC[C@@]2(OC1)O[C@H]1[C@@H](O)[C@H]3[C@@H]4CC[C@H]5C[C@@H](O[C@@H]6O[C@H](CO)[C@H](O[C@@H]7O[C@H](CO)[C@@H](O)[C@H](O[C@@H]8OC[C@@H](O)[C@H](O)[C@H]8O)[C@H]7O[C@@H]7O[C@H](CO)[C@H](O)[C@H](O[C@@H]8O[C@H](CO)[C@@H](O)[C@H](O)[C@H]8O)[C@H]7O)[C@H](O)[C@H]6O)[C@H](O)C[C@]5(C)[C@H]4CC[C@]3(C)[C@H]1[C@@H]2C` [digitonin]: the IC50 result in assay [1], in assay [2], in [3], in assay [4], in assay [5] and in assay [6] was “nc (no competition at 10,000 ppb)” throughout. For the same compound, the IC50 result in [7], in assay [8], in assay [9] and in [10] was “nc (no competition at 10,000 ppb)” each time. Besides, the “cross-reaction of the antibodies” value in assay [11] is reported as “None of the eleven antibodies cross-reacted”.

For `CC[C@H](CC[C@@H](C)[C@H]1CC[C@H]2[C@@H]3CC=C4C[C@@H](O)CC[C@]4(C)[C@H]3CC[C@]12C)C(C)C` [β-sitosterol], the IC50 result in [1], in [2], in [3], in assay [4], in assay [5] and in [6] was “nc (no competition at 10,000 ppb)” each time. Besides, the IC50 entry in assay [7], in [8], in assay [9] and in assay [10] was “nc (no competition at 10,000 ppb)” throughout. For the same compound, in assay [11], the “cross-reaction of the antibodies” value was “None of the eleven antibodies cross-reacted”.

Turning to `CC(C)CCC[C@@H](C)[C@H]1CC[C@H]2[C@@H]3CC=C4C[C@@H](O)CC[C@]4(C)[C@H]3CC[C@]12C` [cholesterol], the IC50 result in assay [1], in assay [2], in assay [3], in assay [4], in [5] and in [6] was “nc (no competition at 10,000 ppb)” in each case. The IC50 result in [7], in assay [8], in assay [9] and in [10] was “nc (no competition at 10,000 ppb)” each time. The “cross-reaction of the antibodies” value in assay [11] was “None of the eleven antibodies cross-reacted”.

These data come from patent US5614408A, “Monoclonal antibodies to potato, tomato, and eggplant glycoalkaloids and assays for the same” (priority 1995, dated 1997).
